The test system of one series is D-galactose treated mice. Briefly: Loss of whiskers induced by D-galactose treatment. In kind it is in vivo, male ICR mice. As to conditions: D-galactose 150 mg/kg daily with or without 120 mg/kg oral extract, 8 weeks; N=12 mice/group. The method, then:
Chronic exposure to D-galactose is a widely studied aging model that causes shortened lifespan in Drosophila and housefly (Jordens et al 1999; Cui et al 2004), and brings about spatial memory deficit, degeneration in the hippocampus and increased oxidative damage in a D-galactose-induced accelerated-aging model of the mouse (Cui et al 2006). […] In the present study, this D-galactose model was applied to 10 week old male ICR mice (n=8-12 per group). The mice were administered daily with 150 mg/kg D-galactose by subcutaneous injection, accompanied by either daily oral administration of the vehicle (0.9% NaCl) in the D-galactose treated control group (“D-gal”), or daily oral administration of one of the BYPA, BYP, BYA, BPA, YPA, BY, BP and YP herbal extracts (120 mg/kg), for an exposure period of 8 weeks. […] The resultant levels of accelerated aging in the D-gal group, the various herbal extract-treatment groups, and the Veh group were assessed at the end of the 8-week exposure period based on five criteria: (i) body weight; (ii) deficit in spatial memory in the Y-maze test; (iii) levels of the pro-inflammatory cytokine TNF-alpha in the brain; (iv) levels of the pro-inflammatory cytokine IL-6 in the brain; and (v) levels of the oxidative stress marker MDA in the brain. […]

Series [1] deals with D-galactose treated animals. The note with it: cited from earlier work.
The subject of series [2] is mice. Briefly: Locomotor activity test. In kind it is in vivo, male ICR mice. The note with it: 3 mg/kg diazepam oral; p<0.001 vs vehicle. The protocol:
Locomotor activity test. Following the elevated plus-maze and holeboard tests, the Veh-treated mice, DZ-treated mice and variously herbal extract-treated mice were assessed for locomotor activity by means of the ZIL-2 apparatus (Beijing Institute of Materia Medica). The test apparatus, with dimensions of 60 cm×60 cm×12 cm, consisted of a transparent plastic cylindrical box equipped with three evenly spaced infrared beams with photodetectors. The number of transitions made across the infrared beams was recorded automatically over a period of 5 minutes. An increase or decrease in the number of transitions indicated a corresponding increase or decrease in the level of locomotor activity (Hui et al, 2002).

The subject of series [3] is mice. Briefly: Step-through passive avoidance test. Format: in vivo, male ICR mice. The note with it: diazepam at 1 or 3 mg/kg oral; p<0.001 vs vehicle. The protocol:
Step-through passive avoidance test. Mice randomly separated into groups (n=15−20/group) were orally administered with vehicle (“Veh”, viz. 0.9% NaCl), 1 or 3 mg/kg DZ, or 120 mg/kg of one of the one-, two-, three- or four-herb extracts 35 minutes prior to training trials. The apparatus consisted of a two-chamber box (from Chinese Academy of Chinese Medical Science, Beijing) with one of the chambers being opaque (darkened) and the other transparent (lighted). In the training trials, each mouse was placed into the lighted chamber, and the door connecting the lighted and darkened chambers was opened 10 seconds later. […] In the actual test, after the mouse entered the darkened chamber, the door was closed and a 2-second electric foot shock of 0.4 mA was delivered through the grid floor. Ten seconds later the mouse was transferred from the darkened chamber back to its home cage. After an interval of 24 hours, it was returned to the lighted chamber. The door to the darkened chamber was opened 10 seconds later, and the time taken for the mouse to enter the darkened chamber was recorded as the ‘step-through latency’, with cut-off set at 300 seconds. A significant decrease in step-through latency observed with any group of animals compared to Veh-treated controls was indicative of impaired […] in the form of anterograde amnesia (Nazari-Serenj eh et al, 2011).

Series [4] deals with mice. Nature of the series: Rotarod test. Format: in vivo, male ICR mice. As to conditions: diazepam at 1 or 3 mg/kg oral; p<0.001 vs vehicle. The method, then: Rotarod test. Mice randomly separated into groups (n=15−20/group) were orally administered 35 minutes prior to the rotarod test with vehicle (“Veh”, viz. 0.9% NaCl), 1 or 3 mg/kg DZ, or 120 mg/kg of one of the one-, two-, three- or four-herb extracts. The rotarod test for muscle coordination was performed using a custom-built apparatus consisted of a cylinder (2.5 cm diameter) with a textured surface placed 0.5 m above the ground. Prior to oral Veh, DZ or herbal extract administration, the mice were first trained to stay for 2 min on the rotarod revolving at 16 rpm. In the test, the effect of Veh, DZ or herbal extract treatment was examined by placing the mouse on the rotarod and recording the length of time it managed to stay on the rotarod, with cut-off set at 2 min.
On the technique in general: In the rotarod test animals must keep their balance on a rotating rod.

Molecules are shown by their SMILES.

With `O=C[C@H](O)[C@@H](O)[C@@H](O)[C@H](O)CO` [D-gal, D-galactose], in the series with D-galactose treated mice, the “Loss of whiskers (% mice) 0 (no loss of whiskers)” value is given as 50 % mice and the “Loss of whiskers (% mice) + (loss of whiskers)” value was 50 % mice.

Take `O=C(O)CCCC[C@@H]1CCSS1` [R-α-lipoic acid]: the “cognitive dysfunction and neurodegeneration” value in series [1] (100 mg/kg i.p., Cui 2006) was “can ameliorate”.

As for `C[C@H]1[C@H](C)CC[C@]2(C(=O)O)CC[C@]3(C)C(=CC[C@@H]4[C@@]5(C)C[C@@H](O)[C@H](O)[C@@](C)(CO)[C@@H]5CC[C@]43C)[C@H]12` [asiatic acid], in series [1] (oral, 10 or 20 mg/kg, Chao et al 2015), the “elevated levels of brain ROS, TNF-alpha and IL-6” value is recorded as “can reduce”.

Regarding `CN1C(=O)CN=C(c2ccccc2)c2cc(Cl)ccc21` [diazepam, Diazepam], in the series with mice [2], the locomotor activity result is given as “significant reduction”. For the same compound, in the series with mice [3], the “step-through latency (anterograde amnesia)” value is “significant anterograde amnesia”. For the same compound, in the series on mice [4], the “time of stay on the moving rotarod (muscle coordination)” value is “significant reduction”.

Consider `CC(C)=CCC[C@](C)(O[C@@H]1O[C@H](CO)[C@@H](O)[C@H](O)[C@H]1O)[C@H]1CC[C@]2(C)[C@@H]1[C@H](O)C[C@@H]1[C@@]3(C)CC[C@H](O)C(C)(C)[C@@H]3[C@@H](O[C@@H]3O[C@H](CO)[C@@H](O)[C@H](O)[C@H]3O)C[C@]12C` [ginsenoside Rg1], for which the “cognitive impairment and hippocampus senescence” value in series [1] (20 mg/kg i.p., Zhu et al 2014) is given as “can prevent”.

The record behind these values is patent US10722547B2, “Compositions of medicinal plants for reducing the effects of aging, prevention and treatment of age-related neurodegenerative diseases, and treatment of anxiety and sleep disorders” (PharmacoGenetics Limited, priority 2016, dated 2020).
